Test system: IMR90 primary human foetal lung fibroblasts
Assay: Telomere length by telomere fibre-FISH (TFF) after exposure of cells to inhibitors
Assay type: cell-based
Details: 0.1 μM aphidicolin and/or 0.2 μM INK128, harvested 7 days after exposure, versus DMSO alone (untreated)
Description: IMR90 primary human foetal lung fibroblasts were plated and 1 day later were exposed to aphidicolin, mTORi, aphidicolin+mTORi, or DMSO alone (untreated). Cells were harvested a further 7 days later and telomere length was assessed by TFF. (A) Representative imaging data of DNA fibres: Left panel—expanded view of telomere fibre fish imaging data. Center and right panels—close up of the boxes 1-5 shown on the left panel. Boxes are drawn around the telomere signals and the length in μm and kb is indicated. (B). Telomere length presented in a Tukey box plot. “+” is the mean, **=P<0.01. TFF was used to measure telomere length in cells exposed to one or both of two inhibitors: aphidicolin and an mTOR inhibitor. Cells (IMR90 primary human foetal lung fibroblasts) were plated and one day later were exposed to 0.1 μM aphidicolin, 0.2 μM of INK128 (an mTOR inhibitor), aphidicolin+INK128, or DMSO alone (untreated). Cells were harvested a further 7 days later and telomere length was assessed by TFF, essentially as described above.

With `C[C@@]1(CO)[C@H](O)CC[C@@]2(C)[C@H]1CC[C@H]1C[C@@H]3C[C@@]12CC[C@]3(O)CO` [aphidicolin] the “Telomere length compared with untreated cells” value was “telomere length in untreated cells was significantly greater”.
In the case of `CC(C)n1nc(-c2ccc3oc(N)nc3c2)c2c(N)ncnc21` [INK128], the “Telomere length compared with untreated cells” value is reported as “telomere length in untreated cells was significantly greater”.
